Data taken from the supplement of paper PMC6045584.
± gives the standard deviation of the averaged measurements.

Key:
XAV-939 [1] = compound: T1, Oc1nc(-c2ccc(C(F)(F)F)cc2)nc2c1CSCC2 [XAV-939]; assay: surviving fraction relative to DMSO-only wells; higher = less growth inhibition; details: exposure time: 5 days
How it was run: (§1)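 Viability values are CellTiter-Glo luminescence readings, given as surviving fraction against the median of DMSO-only wells. The readings were taken after 10 minutes at room temperature, following five days of continuous exposure to inhibitors at 0.5, 1, 5, 10, 50, 100, 500 and 1000 nM that began 24 hours after log-phase tumour cell lines were seeded at 250–500 cells per well in 384-well plates. Every line was screened three times and kept only if replicate Pearson r >0.7 and median Z' >0.3.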

[2] = compound: CNCc1ccc(-c2[nH]c3cc(F)cc4c3c2CCNC4=O)cc1; assay: as above; details: exposure time: 5 days
How it was run: as §1

[3] = compound: CNCc1ccc(-c2[nH]c3cc(F)cc4c3c2CCNC4=O)cc1; assay: area under dose-response curve of surviving fraction (unscaled, Aref=0) (surviving fraction x log10(nM)); higher = more resistant; details: exposure time: 5 days; dose range 0.5-1000 nM
How it was run: (§2)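 Three screens per tumour cell line were run in 384-well plates at eight inhibitor concentrations from 0.5 to 1000 nM over five days. Surviving fractions, from CellTiter-Glo luminescence normalised to DMSO-only wells, were fitted with 3-parameter logistic curves in the drc R package. The reported area under the curve is the unscaled activity area. It spans log10 dose, and Aref is 0.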

CRIZOTINIB = compound: C[C@@H](Oc1cc(-c2cnn(C3CCNCC3)c2)cnc1N)c1c(Cl)ccc(F)c1Cl [CRIZOTINIB]; assay: as above; details: exposure time: 5 days; dose range 0.5-1000 nM
How it was run: as §2

OLAPARIB = compound: O=C(c1cc(Cc2n[nH]c(=O)c3ccccc23)ccc1F)N1CCN(C(=O)C2CC2)CC1 [OLAPARIB]; assay: as above; details: exposure time: 5 days; dose range 0.5-1000 nM
How it was run: as §2

XAV-939 [4] = compound: T1, XAV-939; assay: as above; details: exposure time: 5 days; dose range 0.5-1000 nM
How it was run: as §2

Row | Test System | surviving fraction (XAV-939 [1]; 0.5 nM) | surviving fraction (XAV-939 [1]; 1 nM) | surviving fraction (XAV-939 [1]; 5 nM) | surviving fraction (XAV-939 [1]; 10 nM) | surviving fraction (XAV-939 [1]; 50 nM) | surviving fraction (XAV-939 [1]; 100 nM) | surviving fraction (XAV-939 [1]; 500 nM) | surviving fraction (XAV-939 [1]; 1000 nM) | surviving fraction ([2]; 0.5 nM) | surviving fraction ([2]; 1 nM) | surviving fraction ([2]; 5 nM) | surviving fraction ([2]; 10 nM) | surviving fraction ([2]; 50 nM) | surviving fraction ([2]; 100 nM) | surviving fraction ([2]; 500 nM) | surviving fraction ([2]; 1000 nM) | area under dose-response curve [3] | area under dose-response curve (CRIZOTINIB) | area under dose-response curve (OLAPARIB) | area under dose-response curve (XAV-939 [4])
1 | HU09 BONE | 1.11 ± 0.087 | 1.13 ± 0.061 | 1.06 ± 0.17 | 1.09 ± 0.051 | 1.01 ± 0.11 | 1.21 ± 0.031 | 0.817 ± 0.049 | 0.788 ± 0.043 | 1.04 ± 0.068 | 0.977 ± 0.052 | 1.04 ± 0.072 | 0.991 ± 0.066 | 0.965 ± 0.24 | 0.889 ± 0.13 | 0.757 ± 0.051 | 0.669 ± 0.074 | 3.06 | 3.03 | – | –
2 | HUO3N1 BONE | 1.03 ± 0.037 | 1.07 ± 0.12 | 1.04 ± 0.032 | 1.06 ± 0.048 | 1.09 ± 0.064 | 1.08 ± 0.034 | 0.761 ± 0.043 | 0.759 ± 0.0095 | 1.04 ± 0.061 | 1.02 ± 0.062 | 1.04 ± 0.038 | 0.987 ± 0.099 | 0.933 ± 0.06 | 0.988 ± 0.04 | 0.884 ± 0.039 | 0.85 ± 0.032 | 3.19 | – | 3.21 | –
3 | MDAMB134 BREAST | 1.05 ± 0.052 | 0.999 ± 0.041 | 1.06 ± 0.17 | 0.93 ± 0.03 | 1.13 ± 0.1 | 1.06 ± 0.22 | 1.15 ± 0.052 | 1.03 ± 0.051 | 0.811 ± 0.061 | 0.818 ± 0.12 | 0.814 ± 0.051 | 0.8795 ± 0.0078 | 0.703 ± 0.19 | 0.764 ± 0.13 | 0.824 ± 0.21 | 0.986 ± 0.4 | 2.86 | – | 3.02 | 3.4
4 | MDAMB453 BREAST | 0.991 ± 0.053 | 1.02 ± 0.034 | 1.1 ± 0.088 | 1.08 ± 0.043 | 1.06 ± 0.04 | 1.12 ± 0.074 | 1.02 ± 0.069 | 0.961 ± 0.049 | 0.991 ± 0.071 | 1.01 ± 0.096 | 1.05 ± 0.049 | 0.979 ± 0.093 | 0.919 ± 0.062 | 0.957 ± 0.06 | 0.892 ± 0.022 | 0.696 ± 0.017 | 3.18 | – | 3.22 | 3.47
5 | MDAMB468 BREAST | 1.08 ± 0.041 | 1.04 ± 0.061 | 1.04 ± 0.039 | 1.08 ± 0.038 | 1.09 ± 0.014 | 1.05 ± 0.033 | 0.988 ± 0.072 | 0.964 ± 0.043 | 0.941 ± 0.048 | 0.89 ± 0.085 | 0.917 ± 0.034 | 0.929 ± 0.056 | 0.8 ± 0.047 | 0.746 ± 0.065 | 0.761 ± 0.048 | 0.609 ± 0.12 | 2.75 | 3.08 | 2.89 | –
6 | MG63 BONE | 0.98 ± 0.028 | 1.03 ± 0.034 | 1.025 ± 0.0083 | 1.09 ± 0.018 | 0.947 ± 0.034 | 0.923 ± 0.03 | 0.7 ± 0.0078 | 0.723 ± 0.021 | 1.03 ± 0.052 | 1.04 ± 0.032 | 1.05 ± 0.034 | 1.06 ± 0.058 | 1.03 ± 0.03 | 1.02 ± 0.028 | 0.975 ± 0.031 | 0.938 ± 0.023 | 3.36 | – | 3.26 | 3.05
7 | NCIH441 LUNG | 0.962 ± 0.096 | 1.07 ± 0.052 | 1.02 ± 0.064 | 1.07 ± 0.065 | 1.02 ± 0.077 | 1.06 ± 0.054 | 1.01 ± 0.045 | 0.918 ± 0.052 | 1.06 ± 0.08 | 0.973 ± 0.12 | 1.09 ± 0.064 | 1.01 ± 0.06 | 0.992 ± 0.051 | 0.809 ± 0.022 | 0.996 ± 0.022 | 0.923 ± 0.1 | 3.19 | – | 3.38 | 3.35
8 | NOS1 BONE | 1.11 ± 0.086 | 1.06 ± 0.045 | 1.29 ± 0.26 | 1.14 ± 0.074 | 1.17 ± 0.083 | 1.06 ± 0.096 | 0.783 ± 0.1 | 0.778 ± 0.065 | 1.01 ± 0.042 | 1.08 ± 0.23 | 1.06 ± 0.13 | 0.919 ± 0.11 | 0.795 ± 0.1 | 0.798 ± 0.11 | 0.632 ± 0.049 | 0.602 ± 0.036 | 2.83 | 3.87 | 2.8 | –
